Data on 10 compounds can be found in patent US4217366A, “Pharmaceutically active 2-(4-aminobutoxy)stilbenes” (Mitsubishi Chemical Industries, Ltd., priority 1978, dated 1980).

Data set [1] can be described thus: LD50 in rats, method of Litchfield-Wilcoxon. Here is the method:
(§1) Animals used were ddy strain male mice (20-22 g) and Wistar strain male rats (150-170 g).
(§2) LD50 was calculated by the method of Litchfield-Wilcoxon (J. T. Litchfield and F. Wilcoxon, J. Pharmacol. exp. Therap., 96 99 (1949)).

The nature of data set [2]: LD50 in mice, method of Litchfield-Wilcoxon. The format is in vivo. Conditions: mouse, in vivo, po. How it is done: as §1, §2
The conditions of data set [3]: in vivo. How it is done: as §2
Data set [4] concerns maximal electroshock seizure (MES). The data set can be described thus: Anti-MES action: protection against tonic extensor (TE) induced by electroshock via a pair of ear electrodes. The data set is classed as in vivo, ddy strain male mice. Here is the method:
Animals used were ddy strain male mice (20-22 g) and Wistar strain male rats (150-170 g). Anticonvulsant actions were determined by the ability of the compounds to prevent pentylenetetrazol (PTZ) convulsion and maximal electroshock seizure (MES), using 8 mice per group. Anti-MES action was also judged by the protection against TE induced by electroshock via a pair of ear electrodes ([…] al., J. Pharmacol. exp. Therap., 127 55 (1959)). The results were expressed as 50% effective dose (ED50, mg/kg po) or an inhibition percentage at certain doses used.

Data set [5] concerns pentylenetetrazol (PTZ) convulsion. Put plainly: Anti-PTZ action: protection against tonic extensor (TE) induced by intraperitoneal pentylenetetrazol (100 mg/kg i.p.). The data set is classed as in vivo, ddy strain male mice. Conditions: for ED50 / inhibition at 50 mg/kg: Mus musculus; for inhibition at 50 mg/kg: at 50 mg/kg po (given as <50*). How it is done: (§3) Animals used were ddy strain male mice (20-22 g) and Wistar strain male rats (150-170 g). Anticonvulsant actions were determined by the ability of the compounds to prevent pentylenetetrazol (PTZ) convulsion and maximal electroshock seizure (MES), using 8 mice per group. Anti-PTZ action was judged by the protection against tonic extensor (TE) induced by intraperitoneal injection of PTZ (100 mg/kg i.p.) (K. Nakamura et al., Arch. int. Pharmacodyn., 156 261 (1965)). The results were expressed as 50% effective dose (ED50, mg/kg po) or an inhibition percentage at certain doses used.

Data set [6] has as its system maximal electroshock seizure (MES) and pentylenetetrazol (PTZ) convulsion. Put plainly: antiepileptic efficacy (anti-MES and anti-PTZ) compared with trimethadione and methotoin. The data set is classed as in vivo, ddy strain male mice. As to conditions: from Table 2. How it is done: as §3, with “(1965)). Anti-MES action was also judged by the protection against TE induced by electroshock via a pair of ear electrodes ([…] al., J. Pharmacol. exp. Therap., 127 55 (1959)).” for “(1965)).”

For another data set, the system named is peti-mal seizure. Conditions: well known antiepileptic agent; cited from earlier work.
For a further data set, the system named is Rat. As to conditions: po, from "Iyakuhin Kenkyuho" (page 258), Asakura Shoten (1968); cited from earlier work.
The test system of another data set is grand-mal seizure. Conditions: well known antiepileptic agent; cited from earlier work.
The next data set concerns Mice. The data set can be described thus: LD50 in mice, method of Litchfield-Wilcoxon. The data set is classed as in vivo. Conditions: mice, po. Here is the method:
as §1, §2

[7] abbreviates: Mus musculus, 50% effective dose, po, 8 mice per group.
[8] abbreviates: 50% effective dose, po, PTZ 100 mg/kg i.p., 8 mice per group.

For `CN1CCN(CCCCOc2ccccc2C=Cc2ccccc2)CC1` [compound 3], the LD50 in data set [1] (rat, in vivo, po) was found to be 2300 mg/kg; in data set [2] it was 1050 mg/kg. Moreover, the level of toxicity result in data set [3] was “low level of toxicity”. In addition, the values for the 50% effective dose (ED50) in data set [4] (setting [7]) and in data set [5] (setting [8]) were 35.5 mg/kg and 21.1 mg/kg, respectively. Moreover, the antiepileptic efficacy entry in data set [6] was “much greater than that of trimethadione and methotoin”.

For `C(=Cc1ccccc1OCCCCN1CCCCC1)c1ccccc1` [compound 5], in [2] (mice), the 50% lethal dose (LD50) turned out to be 621 mg/kg. The ED50 in data set [4] (setting [7]) is 60 mg/kg; in data set [5] (setting [8]), less than 50 mg/kg. Besides, testing at 50 mg/kg in data set [5] gave an inhibition of 100%.

`CCCN1CCN(CCCCOc2ccccc2C=Cc2ccccc2)CC1` [compound 8]: the inhibition at 50 mg/kg in data set [4] (Mus musculus, at 50 mg/kg po) was determined as 40%; in [5], 85%. In data set [5] (setting [8]), this compound came in with an ED50 of less than 50 mg/kg.

`OC1CCCN(CCCCOc2ccccc2C=Cc2ccccc2)C1` (stereo not drawn) [compound 6]: the LD50 in [2] (mice) came out at 415 mg/kg. Further, the values for the 50% effective dose (ED50) in data set [4] (setting [7]) and in data set [5] (setting [8]) were 20 mg/kg and 14 mg/kg, respectively. In addition, the antiepileptic efficacy entry in data set [6] is “much greater than that of trimethadione and methotoin”.

Consider `C(=Cc1ccccc1OCCCCN1CCCC1)c1ccccc1` [compound 7], for which the median lethal dose (LD50) in data set [2] (mice) was found to be 600 mg/kg. Besides, the ED50 in [4] (setting [7]) is 65 mg/kg; in [5] (setting [8]), less than 50 mg/kg. The compound further returned an inhibition at 50 mg/kg in data set [5] of 87.5%.

With `CNCCCCOc1ccccc1C=Cc1ccccc1` [compound 2], the LD50 in [2] (mice) is 839 mg/kg. Moreover, the ED50 in data set [4] (setting [7]) worked out at 60 mg/kg; in data set [5] (setting [8]) it was 22.5 mg/kg.

Turning to `CN1C(=O)OC(C)(C)C1=O` [Trimethadione, reference compound], the “effectiveness against peti-mal seizure” value in the data set on peti-mal seizure is “effective against peti-mal seizure”. Further, the LD50 in data set [2] (mice) is 2200 mg/kg. For the same compound, the 50% effective dose (ED50) in [4] (setting [7]) is 1180 mg/kg; in [5] (setting [8]), 230 mg/kg.

As for `OCCN1CCN(CCCCOc2ccccc2C=Cc2ccccc2)CC1` [compound 4], in data set [2] (mice), the LD50 was 1050 mg/kg. Also, the ED50 in data set [4] (setting [7]) was 76.1 mg/kg; in data set [5] (setting [8]) it was 16.3 mg/kg.

On to `CN(C)CCCCOc1ccccc1C=Cc1ccccc1.Cl` [Example 1, 2-(4-dimethylaminobutoxy)stilbene hydrochloride], for which the 50% lethal dose (LD50) worked out at 2000 mg/kg in data set [1] (in vivo; rat, po) and 1300 mg/kg in data set [2] (mice). Also, the level of toxicity entry in data set [3] is “low level of toxicity”. Besides, the results for the ED50 in data set [4] (setting [7]) and in [5] (setting [8]) were 38 mg/kg and 17.8 mg/kg, respectively. Further, the antiepileptic efficacy result in [6] was “much greater than that of trimethadione and methotoin”.

As for `CCC1(c2ccccc2)NC(=O)N(C)C1=O` (stereo not drawn) [Methotoin, reference compound], the “LD50 Rat (literature)” value in the data set with Rat is listed as 2,500 mg/kg PO. The “effectiveness against grand-mal seizure” value with grand-mal seizure is listed as “effective against grand-mal seizure”. In the data set with Mice, the “LD50 Mice” value came to 475 mg/kg PO. For the same compound, the “ED50 Anti-MES” value in [4] (50% effective dose, po, 8 mice per group) came out at 91.3 mg/kg PO. Moreover, the “ED50 Anti-PTZ” value in data set [5] (setting [8]) is given as 51.9 mg/kg PO.
